Data reported in article PMC9223658, “New Borane-Protected Derivatives of α-Aminophosphonous Acid as Anti-Osteosarcoma Agents: ADME Analysis and Molecular Modeling, In Vitro Studies on Anti-Cancer Activities, and NEP Inhibition as a Possible Mechanism of Anti-Proliferative Activity” (International Journal of Molecular Sciences, 2022).

Assays:
[1] = test system: osteosarcoma HOS cells; test: MTT proliferation assay, 96 h; format: cell-based, human; settings: HOS; for IC50: proliferation, 10% FBS, read-out: IC50 (µM ± SD) HOS
Description: (§1) One of the features specific totumor cells is the unlimited potential for proliferation. […] To this end, the assay conditions were established suchthat they encourage the proliferation of OS cells, i.e., the cell cultures at low density were incubated with compounds diluted in the growth medium (10% FBS) for an extended time of 96 h. Additionally, cisplatin, i.e., a common cytostatic used in osteosarcoma treatment, was included as a positive control in this study. Moreover, since the new generation of anti-cancer compounds is highly desired to be inert (non-cytotoxic) towards normal cells, the influence of compounds 1–7 on the viability of human normal cells (osteoblasts hFOB 1.19 and colon fibroblasts CCD-18Co) was also determined.To this end, the assay conditions were established such that they restrict the proliferation of OS cells and to establish whether the compounds have cytotoxic potential, i.e., the cell cultures were incubated with compounds diluted in the medium with a reduced concentration of FBS (2%) for a shortened time of 24 h. […] However, this activity varied depending on both the types of the compounds and the osteosarcoma cell lines (Table 4).
(§2) The anti-proliferative activity of compounds 1–7 against the HOS and Saos-2 osteosarcoma cells and the viability of the human normal hFOB 1.19 and CCD-18Co cells were screened by means of the MTT method. This method is commonly used to assess cell viability and proliferation or to determine the cytotoxicity of any compounds. It is a reliable method for this purpose because it is based on measurement of the level reduction in MTT dye to formazan byNAD(P)H-dependent oxidoreductase enzymes of metabolically active cells.
(§3) To assess the anti-proliferative activity of compounds 1–7 against the HOS and Saos-2 osteosarcoma cells, 3.0 × 10^4 cells/mLseeded (low density culture) into 96-well plates (Nunc, Roskilde, Denmark) were incubated with each compound at concentrations of 3.125, 6.25, 12.5, 25, 50, 100 and 200 µM prepared in medium with 10% FBS (growth medium) for 96 h. Additionally, cisplatin (Sigma Aldrich), i.e., a common cytostatic used in osteosarcoma treatment, was included as a positive control in this study. It was tested in the same conditions as compounds 1–7. The negative control was constituted by the untreated cells (0 µM). Next, the MTT assay was carried out as described previously.
(§4) The results of these assays were calculated as a percent of the untreated cells (100%; control). Then, the IC50 (concentration resulting in 50% inhibition of proliferation) and CC50 (concentration resulting in a 50% decrease in viability) values were calculated from a non-linear regression (log(inhibitor) vs. normalized response-variable slope) using GraphPad Prism 5.0 (GraphPAD Software Inc., San Diego, CA, USA). The IC50 and CC50 results were presented as themean ± SD of at least three experiments. In the case of the BrdU assay, the results were presented as a percent of untreated cells (100%; control).

[2] = test system: osteosarcoma Saos-2 cells; test: MTT proliferation assay, 96 h; format: cell-based, human; settings: for IC50: SAOS-2, proliferation, 10% FBS, read-out: IC50 (µM ± SD) Saos-2
Description: as §1, §2, §3, §4

[3] = MTT viability assay, 24 h; format: cell-based; settings: human, normal osteoblasts hFOB 1.19 cells, 2% FBS, read-out: CC50 (µM ± SD) hFOB 1.19
Description: as §1, §2
To assess the viability of human normal cells, confluent hFOB 1.19 (3 × 10^5 cells/mL) and CCD-18Co (1 × 10^5 cells/mL) cells seeded in 96-well plates (Nunc) were incubated with compounds 1–7 at concentrations of 3.125, 6.25, 12.5, 25, 50, 100 and 200 µM prepared in medium with 2% FBS (maintaining medium) for 24 h. The control was constituted by the untreated cells (0 µM). Next, the MTT assay was carried out as described previously.
as §4

[4] = test system: HOS cells; test: Migration, wound and transwell assays; format: cell-based, human; settings: 24 h; for decrease of migration: wound and transwell assays
Description: (§5) The migration of the HOS and Saos-2 cells was examined using the wound and transwell assays. The wound assay was performed in plastic plates (3-cm diameter, Nunc), in which the osteosarcoma cells were seeded at a density of 3.0 × 10^5 cells/mL. The assay was performed as described previously. Briefly, confluent cell cultures (with wounds) were treated with compounds 4 and 6 at concentrations of 12.5, 25, 50 µM and 20, 40, 80 µM as well as 15, 30, 60 µM and 21.25, 42.5, 85 µM for 24 h, respectively. The solutions of the compounds were prepared in a medium with 2% FBS. The control was constituted by the untreated cells (0 µM). To determine the migratory activity of the cells, the width of the wounds (at 0 and 24 h after incubation) was measured, and photos were taken using an inverted microscope Olympus CKX41 equipped with Image Processing (CellSense) software (Olympus, Tokyo, Japan). The results were expressed as a percentage of wound closure calculated using the following formula: ((width of wound at 0h—width of wound after 24h)/width of wound at 0h) × 100%.
(§6) The transwell migration assay was performed using inserts equipped with a membrane with 8 µm pore size in 24-well plates (Corning, Durham, NC, USA). To this end, the osteosarcoma cells (1 × 10^6 cells/mL) were suspended in a medium supplemented with 0.5% FBS and compounds 4 or 6 at the same concentrations as in the wound assay. The cells were added to the top chambers. The bottom chambers were filled with an appropriate medium supplemented with 10% FBS. After 24 h of incubation, the number of osteosarcoma cells migrating to the lower surface of the insert membrane was quantified using Calcein AM (Sigma Aldrich), which releases the fluorophore after intracellular degradation. The fluorescence was measured by means of a Perkin Elmer Victor^TM plate reader (Thermo Fisher Scientific, Rockford, IL, USA). The cell migratory activity after the treatment with compounds 4 and 6 was calculated as a percentage of invading cells in comparison with the number of invading untreated cells (100%; control).

[5] = test system: Saos-2 cells; test: Migration, wound and transwell assays; format: cell-based, human; settings: Saos-2, 24 h
Description: as §5, §6

Row | SMILES | lowest concentration that inhibited proliferation statistically significantly [1] [µM] | inhibition at 6.25 µM ([1]; Homo sapiens, 6.25 µM) [%] | IC50 ([1]; Homo sapiens) [µM] | IC50 ([2]; Homo sapiens, MTT) [µM] | inhibition at 25 µM ([2]; Homo sapiens, Saos-2, 25 µM, MTT, compared to the control) [%] | lowest concentration that inhibited proliferation statistically significantly ([2]; Saos-2, MTT) [µM] | CC50 at 24 h [3] [µM] | decrease of migration ([4]; 25 µM) | decrease of migration ([4]; 50 µM) | effect on migration [5] | depression of migration ([4]; 80 µM)
1 | [BH3-][P+](OC(C)C)(OC(C)C)C(Nc1ccc(Br)cc1)c1ccc([N+](=O)[O-])cc1 (stereo not drawn) [Compound 4, [1-(N-p-bromophenylamino)]-1-(p-nitrophenyl)methylphosphonousacid-borane diisopropyl ester] | 6.25 | ~18 | 27.2 ± 7.8 | 59.9 ± 15 | ~27 | 25 | 189 ± 36.4 | approx. 19% | approx. 38% | not affected | 
2 | [BH3-][P+](OC(C)C)(OC(C)C)C(Nc1ccc(C)cc1)c1ccccc1 (stereo not drawn) [Compound 6, [1-(N-p-tolylamino)]-1-phenylmethylphosphonous acid-borane diisopropyl ester] |  |  | 41.5 ± 6.9 | 86.8 ± 15.7 |  |  | 266 ± 110 |  |  | not affected | approx. 20%
